According to patent US20050175544A1, “Albuterol inhalation solution, system, kit and method for relieving symptoms of pediatric asthma” (Dey LP, priority 2001, published 2005):
Counter-ions that a name gives are not always drawn.

System: children ages 6 to 12 with asthma
Experiment: 4-week randomized placebo-controlled trial of nebulized albuterol solution, efficacy by FEV1
Assay type: in vivo
Settings: both unit doses; initial dose (Day 1) and after 4 weeks of treatment (Day 28)
Procedure: Patients were randomized to receive a nebulizer solution comprising either 0.63 mg/3 ml or 1.25 mg/3 ml of albuterol sulfate, or a placebo. The inhalation solution was administered via a Pari LC Plus™ nebulizer and a Pari PRONEB™ compressor. […] In this study, qualifying children ages 6 to 12 were randomized to receive 1 of the following three treatments twice daily (TD) for 4 weeks, each in 3.0 mL volume: (1) 1.25 mg albuterol sulfate inhalation solution; (2) 9.63 mg albuterol sulfate inhalation solution; or (3) placebo (saline). Each patient was provided with a personal compressor-driven PARI LC PLUS™ nebulizer, by Pari Respirator Equipment, Inc., Richmond, Va., for the duration of the study. […] The 4-week study period began with the initial dose, to be taken in the morning, administered at the study site. Pre-dose pulmonary function tests and pulmonary function tests 30 minutes after the end of nebulization and hourly thereafter for 6 hours were performed. After 11 days, patients returned for exchange of study medication and diaries and pulmonary function tests before and 30 minutes after the morning dosing. […] The safety profiles of each unit dose and placebo were determined by collecting vital signs (heart rate, blood pressure, respiration rate, and body temperature) as well as electrocardiograms. […]

CC(C)(C)NCC(O)c1ccc(O)c(CO)c1 (stereo not drawn) [albuterol, α^1-[(tert-butylamino)methyl]-4-hydroxy-m-xylene-α,α′-diol sulfate (2:1)(salt)]
Improvement in FEV1 compared to placebo (area under percent change from pre-dose FEV1 versus time curve): significant improvement
